Tests used:
[1] = system: MC3T3-E1 subclone 4 cells; assay: Osteoblast alkaline phosphatase (ALP) activity in pre-osteoblastic cell line; format: cell-based; conditions: 7 days of differentiation, without ascorbic acid; 3 μM menaquinone-7, 1 nM 1α,25-dihydroxyvitamin D3 or 100 nM all-trans-retinoic acid; FIG. 1A
From the text: The pre-osteoblastic cell line MC3T3-E1 subclone 4 (CRL-2593) was purchased from ATCC (Manassas; Virginia, USA). Cells were maintained in growth medium (GM) composed of ascorbic acid-free αMEM (ThermoFisher Scientific), supplemented with 10% fetal calf serum (FCS, ThermoFisher Scientific) and 1% penicillin/streptomycin. All culture media were refreshed every 2-3 days. Cells were passaged with trypsin/EDTA solution at less than 80% confluence. To induce differentiation into osteoblasts, cells were seeded at 5×10^4 cells/cm^2 and grown to confluency in GM for 24 h. Then, the medium was switched to differentiation medium (DM) composed of GM supplemented with 10 mM β-glycerophosphate and treatment solutions of interest. Ascorbic acid 50 μg/ml was also added to the DM depending on the experiment. […]
After 7 days of differentiation, cells were then collected for alkaline phosphatase (ALP) activity measurement as described previously with minor modifications. […] Enzymatic reaction was monitored at 405 nm after 4-Nitrophenyl phosphate disodium salt hexahydrate addition. Michaelis-Menten kinetics were evaluated at 30° C. for 30 min. […] The activity value was normalized by protein content measured via the Pierce BCA Protein Assay Kit (ThermoFisher Scientific) according to the manufacturer's instructions.

[2] = system: osteocalcin mRNA in MC3T3-E1 subclone 4 cells; assay: Osteocalcin mRNA levels (qPCR) in pre-osteoblastic cell line; format: cell-based; conditions: 21 days of differentiation, without ascorbic acid; 3 μM menaquinone-7, 1 nM 1α,25-dihydroxyvitamin D3 or 100 nM all-trans-retinoic acid; FIG. 1B
From the text: The pre-osteoblastic cell line MC3T3-E1 subclone 4 (CRL-2593) was purchased from ATCC (Manassas; Virginia, USA). Cells were maintained in growth medium (GM) composed of ascorbic acid-free αMEM (ThermoFisher Scientific), supplemented with 10% fetal calf serum (FCS, ThermoFisher Scientific) and 1% penicillin/streptomycin. All culture media were refreshed every 2-3 days. Cells were passaged with trypsin/EDTA solution at less than 80% confluence. To induce differentiation into osteoblasts, cells were seeded at 5×10^4 cells/cm^2 and grown to confluency in GM for 24 h. Then, the medium was switched to differentiation medium (DM) composed of GM supplemented with 10 mM β-glycerophosphate and treatment solutions of interest. Ascorbic acid 50 μg/ml was also added to the DM depending on the experiment.
MC3T3-E1 subclone 4 cells were differentiated for 21 days (in DM without ascorbic acid except for the positive control) or 28 days (in DM containing ascorbic acid). Cells were then collected for gene expression analysis. […] RNA concentrations were measured using the DropSense96 (TRINEAN, Gentbrugge, Belgium).
cDNAs were synthetized using High-Capacity cDNA Reverse Transcription Kit (AppliedBiosystems; Waltham, Massachusetts, USA) according to the manufacturer's instructions. […] The relative gene expression was evaluated via the 2^-ΔCt method.

SMILES: CC(C)=CCC/C(C)=C/CC/C(C)=C/CC/C(C)=C/CC/C(C)=C/CC/C(C)=C/CC/C(C)=C/CC1=C(C)C(=O)c2ccccc2C1=O [vitamin K2, menaquinone-7]
- effect on ALP activity (marker of osteoblast differentiation) [1]: no significant effect

SMILES: C=C1/C(=C\C=C2/CCC[C@]3(C)[C@@H]([C@H](C)CCCC(C)(C)O)CC[C@@H]23)C[C@@H](O)C[C@@H]1O [vitamin D, 1α,25-Dihydroxyvitamin D3]
- effect on osteocalcin expression (mRNA) [2]: no significant effect

SMILES: CC1=C(/C=C/C(C)=C/C=C/C(C)=C/C(=O)O)C(C)(C)CCC1 [vitamin A, all-trans-retinoic acid]
- effect on osteocalcin expression (mRNA) [2]: no significant effect
